Here are results for one compound from US20230382926A1, “COMPOUNDS AND USES THEREOF” (The University of The West Indies, priority 2022, published 2023).

The structures appear in SMILES notation.

Assay [1] has as its system clinical isolate CR-K. pneumoniae 7225. In words: Non-lethal mouse peritonitis infection model. Type of assay: in vivo, Swiss albino mice. The method, then: (§1) For both lethal and non-lethal infection models involving Carbapenem resistant Klebsiella pneumoniae suitable strains, number of mice per treatment and bacterial infection dose were predetermined in preliminary experiments.
Each mouse (n=6 per group) received an intraperitoneal (i.p.) injection of 200 μl of bacterial suspension (1×10^4 CFU ml^−1).
Mice were then treated once daily for two subsequent days (i.e. 24 h and 48 h). Twenty-four-hours after the last dose, the mice were euthanized via cervical dislocation and their spleen and liver excised, homogenized in PBS and plated onto Hichrome™ Klebsiella selective media (HiMedia Laboratories, PA, USA). The plates were incubated at 35° C. for 24 h and bacterial counts were determined (CFU g^−1 organ).
Based on the significance of the SP-azaBIMs to restore the in vitro efficacy of antibiotics against high priority pathogenic bacteria, we examined if these compounds could provide proof of concept that they could be used to treat in vivo infections. To test this, we performed both non-lethal and lethal intraperitoneal infection models in Swiss Albino mice.
There was a significant reduction in the K. pneumoniae load in both the liver (FIG. 2a) and spleen (FIG. 2b) for the combination therapies compared to the respective antibiotic monotherapies. […] Colistin (Col) (10 mg kg^−1) was used as the positive control in this case. K. pneumoniae load in the liver (FIG. 2a) and spleen (FIG. 2b) was determined by selective plating on Hichrome™ Klebsiella selective media. Data bars represent the average (n=6 mice per treatment group)±standard error.

The test system of another assay is K. pneumoniae 7225. In words: Lethal peritonitis infection model (survival). Type of assay: in vivo, Swiss albino mice. Conditions: for Survival in lethal K. pneumoniae infection: each 10 mg kg^−1 s.c. As for the experimental part: as §1
For the lethal peritonitis infections, mice were treated as in the non-lethal infection studies except the inoculation dose was 2×10^7 CFU mL^−1 K. pneumoniae 7225. The mice were then divided into the previously listed treatment regimens and treatment was provided every 24 h for two days after infection. Mice were monitored for mortality for 7 days and the moribund mice were euthanized humanely using cervical dislocation.
For survival experiments, Swiss albino mice were given lethal doses of K. pneumoniae 7225 (C) (2×10^7 CFU ml^−1) via i.p. injection. Mice were treated the same as in the non-lethal peritonitis experiments and mortality was monitored for 7 days. Data lines represent the percent of mice (n=10 mice per treatment group) that survived daily. […]

Assay [2] relates to Klebsiella pneumoniae ATCC BAA-2814. In words: Gene expression analysis by quantitative reverse transcription PCR. Type of assay: cell-based. The method, then:
Cell treatment and RNA extraction: Overnight cultures of Klebsiella pneumoniae ATCC BAA-2814 grown on Brain Heart Infusion (BHI) agar was harvested and washed in phosphate buffer saline (pH=7.4) twice. Fresh Brain Heart infusion broth was inoculated with K. pneumoniae cells to a final concentration of 10^6 CFU mL^−1. Cells were subjected to the following treatments: T0—Vehicle only (ddH2O); T1—Meropenem only (0.25 MIC; 8 μg mL^−1); T2—Meropenem 0.25 MIC+SP-azaBIM 136 (2 ug mL^−1). Treated cells were incubated at 35° C. at 200 rpm and total RNA was extracted at 1 h and 6 h post exposure using TRIzol reagent (Life Technologies) following the manufacturer's protocol before eluting in DEPC treated water. Three biological replicates were included for each treatment.
Quantitative reverse transcription PCR analysis: Reverse transcription was done using the GoScript Reverse Transcriptase Kit (Promega, USA) employing a mixture (1:1) of random and oligo dT primers with 2 μg RNA as starting material in a 20-μL reaction following the manufacturers protocols. cDNA samples were then quantified by real-time PCR using specific primers in an Applied Biosystems 7500 Fast Real-Time PCR system (Life Technologies Corp., USA) and the data analysed using the 2^(−ΔΔct) method. Thermal cycling was performed using a two-step PCR amplification standard procedure at 95° C. for 30 s and 35 cycles of 95° C. for 5 s and 60° C. for 30 s. The expression levels of all the genes were normalized using the K. pneumoniae RNA polymerase sigma factor (rpoD) gene as an internal standard.
To examine this hypothesis, we investigated the expression of genes in K. pneumoniae ATCC […] that were affected by SP-azaBIM 136 treatment. Expression of key transcription factors and their associated downstream resistance and pathogenicity genes was examined in Klebsiella pneumoniae cells treated with meropenem and a combination of meropenem and SP-azaBIM 136. Cells in the exponential phase were either treated with 0.25 MIC (8 μg mL^−1) of Meropenem only or a combination of 0.25 MIC meropenem and 10 μg mL^−1 of SP-azaBIM 136. Untreated cells served as the control for baseline gene expression. Cells were exposed to each agent for 1 h and 6 h, after which the total RNA was extracted, and cDNA synthesis performed. […] The addition of SP-azaBIM 136 was theorized to revert the expression of the relevant genes closer to baseline expression levels.

Setting [3] is: co-administered with Meropenem 10 mg kg^−1, SP-azaBIM 136 10 mg kg^−1 s.c. at 1, 24, 48 h, versus Meropenem only.
Setting [4] is: combination with Ciprofloxacin 10 mg kg^−1, SP-azaBIM 136 10 mg kg^−1 s.c., compared to Ciprofloxacin only.
[5] abbreviates: Meropenem 0.25 MIC + SP-azaBIM 136, 6 h.
Where [6] appears, read: addition of SP-azaBIM 136 to meropenem, versus meropenem only.

`Oc1ccc(C(c2c[nH]c3cnccc23)c2c[nH]c3cnccc23)cc1` [SP-6azaBIM 136, 4-(bis(1H-pyrrolo[2,3-c]pyridin-3-yl)methyl)phenol]: the “K. pneumoniae load in the organs” value in assay [1] (SP-azaBIM 136 on its own, 10 mg kg^−1) is listed as “not able to reduce K. pneumoniae load in the organs”. In assay [1] (setting [3]), the “Reduction of bacterial cells in the liver” value was 41 fold and the “Reduction of bacterial cells in the spleen” value is 14 fold. In assay [1] (setting [4]), the “Reduction of bacterial cells in the liver” value is given as roughly 53 fold and the “Reduction of bacterial cells in the spleen” value is roughly 12 fold. In addition, the “Protection to lethal infections” value in the assay with K. pneumoniae 7225 (SP-azaBIM 136 on its own) is listed as “nor provide any protection to lethal infections”. In addition, in the assay with K. pneumoniae 7225 (co-treatment with Ciprofloxacin, 7 days), the “Survival in lethal K. pneumoniae infection” value was 100%. For the same compound, in the assay on K. pneumoniae 7225 (co-treatment with Meropenem, 7 days), the “Survival in lethal K. pneumoniae infection” value worked out at 90%. Further, the “Mortality in lethal K. pneumoniae infection” value in the assay on K. pneumoniae 7225 (monotherapy 10 mg kg^−1 s.c., 2×10^7 CFU ml^−1 i.p., 7 days) is on record as 100%. Also, the “ROB gene expression relative to baseline levels” value in assay [2] (Meropenem 0.25 MIC + SP-azaBIM 136 (2 ug mL^−1, 10 μg mL^−1 elsewhere in the source), 1 h) is recorded as 0.35 times that of baseline levels. The “soxS gene expression compared to untreated cells” value in assay [2] (Meropenem 0.25 MIC + SP-azaBIM 136, 1 h) was 0.28 fold. Besides, in assay [2] (setting [5]), the “ROB gene expression relative to baseline levels” value is reported as 1.4 fold and the “soxS gene expression compared to untreated cells” value was determined as 0.76 fold. For the same compound, in assay [2] (Meropenem + SP-azaBIM 136), the “Expression of extended spectrum beta-lactamases and carbapenemase gene KPC” value is recorded as “significantly suppressed”; the TEM-1 gene expression entry is listed as “no significant variation in expression”; the “marA regulatory gene expression response” value is “not as profound as the other two genes”. Further, the “Virulence gene expression (fimH, entB, iutA, rpmA)” value in assay [2] (SP-azaBIM 136 added to meropenem, 1 h and 6 h) is recorded as “expression decreased significantly”. In assay [2] (setting [6]), the “Reduction in mexA gene expression” value worked out at 17 fold and the “Reduction in norB gene expression” value was found to be 4.5 fold.
